Experimental data published in PubChem BioAssay (NCI).
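Following 48 hours of exposure in 96-well plates, responses at five concentrations were used to interpolate endpoints linearly. GI50: concentration for 50% inhibition of growth. TGI: concentration producing complete growth inhibition.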

Key:
Test in all cases: NCI tumour cell line growth inhibition, 48 h
[1] = test system: 786-0 renal
[2] = test system: A498 renal
[3] = test system: A549 NSCLC
[4] = test system: ACHN renal
[5] = test system: BT-549 breast
[6] = test system: CAKI-1 renal
[7] = test system: CCRF-CEM leukemia
[8] = test system: COLO 205 colon
[9] = test system: DU-145 prostate
[10] = test system: EKVX NSCLC
[11] = test system: HCC-2998 colon
[12] = test system: HCT-116 colon
[13] = test system: HCT-15 colon
[14] = test system: HL-60(TB) leukemia
[15] = test system: HOP-62 NSCLC
[16] = test system: HOP-92 NSCLC
[17] = test system: HS 578T breast
[18] = test system: HT29 colon
[19] = test system: IGROV1 ovarian
[20] = test system: K-562 leukemia
[21] = test system: KM12 colon
[22] = test system: LOX IMVI melanoma
[23] = test system: M14 melanoma
[24] = test system: MALME-3M melanoma
[25] = test system: MCF7 breast
[26] = test system: MDA-MB-231 breast
[27] = test system: MDA-MB-435
[28] = test system: MOLT-4 leukemia
[29] = test system: NCI-H226 lung
[30] = test system: NCI-H460 lung
[31] = test system: NCI-H522 lung
[32] = test system: NCI/ADR-RES ovarian
[33] = test system: OVCAR-3 ovarian
[34] = test system: OVCAR-4 ovarian
[35] = test system: OVCAR-5 ovarian
[36] = test system: OVCAR-8 ovarian
[37] = test system: PC-3 prostate
[38] = test system: RPMI-8226 leukemia
[39] = test system: RXF 393 renal
[40] = test system: SF-268 CNS
[41] = test system: SF-295 CNS
[42] = test system: SF-539 CNS
[43] = test system: SK-MEL-2 melanoma
[44] = test system: SK-MEL-28 melanoma
[45] = test system: SK-MEL-5 melanoma
[46] = test system: SK-OV-3 ovarian
[47] = test system: SN12C renal
[48] = test system: SNB-19 CNS
[49] = test system: SNB-75 CNS
[50] = test system: SR leukemia
[51] = test system: SW-620 colon
[52] = test system: T-47D breast
[53] = test system: TK-10 renal
[54] = test system: U251 CNS
[55] = test system: UACC-257 melanoma
[56] = test system: UACC-62 melanoma
[57] = test system: UO-31 renal

## CCOc1ccc([C@H]2C(C(=O)c3ccc(Cl)cc3)C3(N[C@@H]2c2ccccc2)C(=O)Nc2ccc(Br)cc23)cc1 (some centres undefined)
[1]
  GI50: 15.4 µM
  TGI: 30.1 µM
[2]
  GI50: 14.3 µM
  TGI: 28.8 µM
[3]
  GI50: 13.9 µM
  TGI: 28.9 µM
[4]
  GI50: 15 µM
  TGI: 28.6 µM
[5]
  GI50: 15.6 µM
  TGI: 29.9 µM
[6]
  GI50: 13.1 µM
  TGI: 26.2 µM
[7]
  GI50: 23.1 µM
  TGI: 72 µM
[8]
  GI50: 15 µM
  TGI: 30.1 µM
[9]
  GI50: 17.7 µM
  TGI: 38 µM
[10]
  GI50: 15.9 µM
  TGI: 35.4 µM
[11]
  GI50: 15.7 µM
  TGI: 31 µM
[12]
  GI50: 14.6 µM
  TGI: 29.7 µM
[13]
  GI50: 16.1 µM
  TGI: 35.3 µM
[14]
  GI50: 23.1 µM
  TGI: 63.1 µM
[15]
  GI50: 14.3 µM
  TGI: 28 µM
[16]
  GI50: 7.75 µM
  TGI: 21.8 µM
[17]
  GI50: 17.9 µM
  TGI: 47.8 µM
[18]
  GI50: 14.9 µM
  TGI: 31 µM
[19]
  GI50: 14.2 µM
  TGI: 31.6 µM
[20]
  GI50: 25.3 µM
  TGI: > 100 µM
[21]
  GI50: 17.1 µM
  TGI: 49.1 µM
[22]
  GI50: 15.7 µM
  TGI: 30.4 µM
[23]
  GI50: 15 µM
  TGI: 30.1 µM
[24]
  GI50: 14.7 µM
  TGI: 28.5 µM
[25]
  GI50: 14 µM
  TGI: 36.7 µM
[26]
  GI50: 15.8 µM
  TGI: 31.8 µM
[27]
  GI50: 15.9 µM
  TGI: 30.3 µM
[28]
  GI50: 18.2 µM
  TGI: 73.8 µM
[29]
  GI50: 15.1 µM
  TGI: 32.6 µM
[30]
  GI50: 16.7 µM
  TGI: 35.5 µM
[31]
  GI50: 14.2 µM
  TGI: 28.2 µM
[32]
  GI50: 19.8 µM
  TGI: 44.8 µM
[33]
  GI50: 17.5 µM
  TGI: 38 µM
[34]
  GI50: 14.3 µM
  TGI: 28.1 µM
[35]
  GI50: 14.6 µM
  TGI: 29.4 µM
[36]
  GI50: 16.4 µM
  TGI: 32 µM
[37]
  GI50: 13.8 µM
  TGI: 27.6 µM
[38]
  GI50: 22 µM
  TGI: 70.8 µM
[39]
  GI50: 13.1 µM
  TGI: 26.1 µM
[40]
  GI50: 17.3 µM
  TGI: 39.4 µM
[41]
  GI50: 16.1 µM
  TGI: 30.3 µM
[42]
  GI50: 15.9 µM
  TGI: 30.5 µM
[43]
  GI50: 14.1 µM
  TGI: 27.9 µM
[44]
  GI50: 16.1 µM
  TGI: 30.4 µM
[45]
  GI50: 18 µM
  TGI: 32.7 µM
[46]
  GI50: 14.5 µM
  TGI: 28.3 µM
[47]
  GI50: 15.2 µM
  TGI: 31.2 µM
[48]
  GI50: 15.2 µM
  TGI: 29.7 µM
[49]
  GI50: 11.3 µM
  TGI: 23.7 µM
[50]
  GI50: 15.5 µM
  TGI: 44 µM
[51]
  GI50: 18.5 µM
  TGI: 40.9 µM
[52]
  GI50: 14.2 µM
  TGI: 35.2 µM
[53]
  GI50: 13.7 µM
  TGI: 28.8 µM
[54]
  GI50: 15 µM
  TGI: 29.8 µM
[55]
  GI50: 14.7 µM
  TGI: 29 µM
[56]
  GI50: 13.3 µM
  TGI: 27.1 µM
[57]
  GI50: 12.9 µM
  TGI: 25.6 µM

## N#C/C(=C\c1ccc(-c2ccc(F)cc2)o1)C(=O)Nc1ncc(Cc2ccc(Cl)cc2Cl)s1
[1]
  GI50: 2.69 µM
  TGI: 10 µM
[2]
  GI50: 3.03 µM
  TGI: 22 µM
[4]
  GI50: 3.52 µM
  TGI: 13.9 µM
[5]
  GI50: 1.98 µM
  TGI: 4.65 µM
[6]
  GI50: 3.05 µM
  TGI: 16.7 µM
[7]
  GI50: 4.23 µM
  TGI: > 100 µM
[9]
  GI50: 4.19 µM
  TGI: > 100 µM
[10]
  GI50: 2.32 µM
  TGI: 6.88 µM
[11]
  GI50: 3.36 µM
  TGI: > 100 µM
[12]
  GI50: 2.9 µM
  TGI: 10.9 µM
[13]
  GI50: 2.38 µM
  TGI: > 100 µM
[15]
  GI50: 3.71 µM
  TGI: 16.8 µM
[16]
  GI50: 2.17 µM
  TGI: 9.16 µM
[17]
  GI50: 3.19 µM
  TGI: 27.9 µM
[19]
  GI50: 2.47 µM
  TGI: 7.54 µM
[20]
  GI50: 3.48 µM
  TGI: > 100 µM
[21]
  GI50: > 100 µM
  TGI: > 100 µM
[22]
  GI50: 1.64 µM
  TGI: 3.43 µM
[23]
  GI50: 2.91 µM
  TGI: 23.6 µM
[24]
  GI50: 2.87 µM
  TGI: 9.18 µM
[25]
  GI50: 2.21 µM
  TGI: 8.67 µM
[26]
  GI50: 3.67 µM
  TGI: 32.2 µM
[27]
  GI50: 2.95 µM
  TGI: > 100 µM
[28]
  GI50: 5.24 µM
  TGI: > 100 µM
[29]
  GI50: 2.83 µM
  TGI: 8.52 µM
[30]
  GI50: 1.76 µM
  TGI: 3.64 µM
[31]
  GI50: 3.49 µM
  TGI: 34.6 µM
[32]
  GI50: 3.55 µM
  TGI: > 100 µM
[34]
  GI50: 2.99 µM
  TGI: 9.23 µM
[35]
  GI50: 4.06 µM
  TGI: > 100 µM
[36]
  GI50: 2.94 µM
  TGI: 16.7 µM
[37]
  GI50: 2.19 µM
  TGI: 6.04 µM
[38]
  GI50: 4.33 µM
  TGI: > 100 µM
[39]
  GI50: 2.28 µM
  TGI: 5.78 µM
[40]
  GI50: 3.15 µM
  TGI: 22.6 µM
[41]
  GI50: 1.92 µM
  TGI: 4.27 µM
[42]
  GI50: 2.95 µM
  TGI: 8.8 µM
[43]
  GI50: 2.91 µM
  TGI: 16 µM
[46]
  GI50: 8.63 µM
  TGI: 34.9 µM
[47]
  GI50: 2.48 µM
  TGI: 8.64 µM
[48]
  GI50: 4.63 µM
  TGI: 29.5 µM
[49]
  GI50: 6.2 µM
  TGI: 28.4 µM
[50]
  GI50: 0.778 µM
  TGI: 12.2 µM
[51]
  GI50: 1.79 µM
  TGI: 4.66 µM
[52]
  GI50: 2.75 µM
  TGI: 29.8 µM
[53]
  GI50: 9.27 µM
  TGI: 30 µM
[54]
  GI50: 2.04 µM
  TGI: 4.11 µM
[55]
  GI50: 4.23 µM
  TGI: > 100 µM
[56]
  GI50: 3.71 µM
  TGI: > 100 µM
[57]
  GI50: 5 µM
  TGI: > 100 µM
